# Reference: US9018195B2, “Use of 2,5-dihydroxybenzene sulfonic acid compounds for treating skin photoaging” (AmDerma Pharmaceuticals, LLC, priority 2004, dated 2015)
# Columns and labels:
# actinic keratosis = assay: Topical treatment of actinic keratosis lesions in patients; type: in vivo, human; details: for actinic keratosis: 2.5% by weight emulsion, twice a day, two lesions in the same patient (scalp)
# Source text: An emulsion containing 2.5% by weight of 2,5-dihydroxybenzenesulfonic acid was used to treat two lesions of actinic keratosis in the same patient, as shown in FIGS. 4 and 5. […] Calcium salt of 2,5-dihydroxybenzenesulfonic acid was used.
# (§1) In this study, 2,5-dihydroxybenzenesulfonic acid, potassium salt, formulated as 5% by weight in the form of cream has been used, since this type of formulation is a habitual procedure for topical treatments of the skin. Distilled water has been used as the aqueous phase of the cream. The oil phase thereof may comprise cetyl alcohol, stearyl alcohol or vaseline. Span (sorbitan monooleate) is an effective emulsifier to make the cream.
# Active principle: 2,5-dihydroxybenzenesulfonic acid, potassium salt, 5% by weight.
# Excipients: cetyl alcohol (2.5%), stearyl alcohol (2.5%), liquid vaseline (30%), white soft vaseline (20%), sorbitan monooleate (5%) and distilled water (q.s. to 100 g).
# [1] = biological target: T1, fibroblast growth factor-1 (FGF-1) (Homo sapiens, UniProt P05230); assay: Inhibition of fibroblast mitogenesis induced by FGF-1 in quiescent Balb/c 3T3 cultures; type: cell-based; details: quiescent cultures of Balb/c 3T3 fibroblasts; potassium salts, 2-acetoxy-5-hydroxybenzenesulfonate as calcium salt
# T1 construct: host or cells: added to Balb/c 3T3 fibroblast cultures
# Description: The evaluated compounds were used in the form of potassium salt, except in the first case in which calcium salt was used. The experiments were carried out as described in Fernández-Tornero C et al. J Biol Chem, 2003.
# [2] = biological target: T1, fibroblast growth factor-1 (FGF-1); assay: Structural interaction with FGF-1 from diffraction of complex crystals; type: binding; details: electron density contoured at 1σ; acetoxyl groups kept when bound
# Description: As of the diffraction from complex crystals of FGF-1: 2-acetoxy-5-hydroxybenzenesulfonic acid, FGF-1: 5-acetoxy-2-hydroxybenzenesulfonic acid and FGF-1: 2,5-diacetoxybenzenesulfonic acid, the complex structures were calculated and represented. In FIGS. 20, 21 and 22, representing the surface of the protein cloured according to its electrostatic potential (light grey: negative charge, dark grey: positive charge, white: areas with no charge), the interaction form of the 2-acetoxy-5-hydroxybenzenesulfonic acid, 5-acetoxy-2-hydroxybenzenesulfonic acid and 2,5-diacetoxybenzenesulfonic acid, respectively, with the FGF-1 may be observed.
# mouse glioma C6 cells = assay: Proliferation of glioma C6 cells, crystal violet; type: cell-based; details: 500 μM, 48 hours, potassium salts, p<0.001
# Description: The cell line used was that of mouse glioma C6 cells. Once attached, the cells were treated o not treated (controls) with (5A-2HBS) (500 μM) or (2A-5HBS) (500 μM) and they were allowed to proliferate during 48 hours. After that, the proliferation of glioma cells was evaluated by staining the fixed cells with crystal violet. The number of cells is proportional to the amount of retained dye, which was spectrophotometrically determined by measuring absorbance at 595 nm after removing the dye from the cells.
# [3] = test system: cell line of preadipocytes 3T3L1; assay: Adipogenesis assay in preadipocytes, Oil Red O staining; type: cell-based
# Description: The preadipocytes were seeded in a 6 well plate where they grew up to the confluence In a standard culture medium [Dulbecco's Essential Medium (DEM)], supplemented with 1.5 g/L of sodium bicarbonate, non essential aminoacids and 10% bovine fetal serum. […] The culture medium was renewed every two days. After seven days, the differentiation to adipocytes was initiated in the six wells by the addition of dexametasone ([…]), 3-isobutyl-1-methylxanthine (0.5 mM) and insuline (160 nM) during two days, followed by the substitution of the culture medium by another culture medium containing insuline (160 nM) during five days. […] The culture medium was renewed every two days.
# 12 days later, the adipogenesis was determined by staining with Oil Red O to check the cytoplasmic accumulation of triglycerides. The cells were washed with phosphate buffer (PBS), fixed with 4% paraformaldehyde and stained during thirty minutes with Oil Red O. Isopropanol was used to remove the dye from the cells to quantify the accumulation of lipids; the absorbance thereof was measured at 510 nm in a spectrophotometer.
# seborrheic keratosis = assay: Topical treatment of seborrheic keratosis; type: in vivo, human
# Source text: (§2) Topical treatment with the above described cream (twice a day for 11 days) of human skin (basal conditions shown in FIG. 2A) results in a reduction of seborrheic keratosis (big circle) as well as of viral warts (small circle), as shown in FIG. 2B.
# Another example of the effect of 2,5-dihydroxybenzenesulfonate on seborrheic keratosis is shown in FIG. 3, wherein the seborrheic keratosis is reduced due to the topical treatment on the affected area for 4 weeks, twice a day, with an emulsion containing the 2,5-dihydroxybenzenesulfonic acid, 2.5% by weight.
# hair growth = assay: Effect of topical cream on hair growth; type: in vivo, human; details: 5% cream, potassium salt, twice a day for 3 months
# Source text: 2,5-dihydroxybenzenesulfonic acid, potassium salt, formulated in the form of cream was used and its composition was the same as that used in example 1.
# viral warts = assay: Topical treatment of viral warts; type: in vivo, human; details: 5% cream, twice a day for 11 days
# Source text: as §2
# human photoaged skin = assay: Topical treatment of human photoaged skin with cream; type: in vivo; details: 5% cream, potassium salt, twice a day for 3 months
# Source text: as §1
# Active principle: 2,5-dihydroxybenzenesulfonic acid, potassium salt, 5% by weight. Excipients: cetyl alcohol (2.5%), stearyl alcohol (2.5%), liquid vaseline (30%), white soft vaseline (20%), sorbitan monooleate (5%) and distilled water (q.s. to 100 g).
# Lightening of skin hyperpigmentation after the application of 2,5-dihydroxybenzenesulfonic acid may justify the use thereof to treat melanic dyschromia with hyperpigmentation as occurs, among other pathologies, in the Mongolian spot, the nevus of Ota, the nevus of Ito, the nevus of Becker, ephelides (freckles), the lentigo malign melanoma, the café-au-lait macules or the melasma (chloasma).
# [4] = test system: rabbit subcutaneous fat preadipocytes; assay: Proliferation of subcutaneous fat preadipocytes, crystal violet; type: cell-based; details: 72 hours
# Description: The primary cultures of rabbit preadipocytes were obtained from the inguinal fat of New Zealand rabbits. Once the fat is removed, it is processed by mechanical disaggregation and enzymatic digestion with 0.075% type I collagenase (Gibco BRL, Paisley, Scotland, RU) for 30 minutes at 37°. The mature adipocytes are separated, removed by centrifugation (300×g, 5 min) and the cell sediment is selected. Then, the mononuclear cells with low cell density are isolated by density gradient centrifugation with Ficoll-Paque (Amersham Biosciences, Uppsala, Sweden). Once the low density mononuclear cells are obtained, they are seeded in a 75 cm^2 culture flask and cultured in an incubator at 37° C. with air containing 5% CO2, in an Eagle medium modified by Dulbecco (DMEM) (Gibco) with 10% of bovine fetal serum (Gibco) and 0.1% of antibiotic-antimicotic (Gibco). The culture medium is replaced 24 hours later to remove the cells present in the supernatant, and to select the cells adhered to the culture flask. […]
# The rabbit preadipocytes proliferation experiments were carried out in 24-well plates. […] The proliferation of preadipocytes was evaluated 72 hours later, and at that moment the cells were fixed with 1% glutaraldehyde. The cellular proliferation was evaluated using the crystal violet method, by measuring the absorbance at a wave length of 595 nm.
# T1 sequence (P05230 whole entry, species assumed): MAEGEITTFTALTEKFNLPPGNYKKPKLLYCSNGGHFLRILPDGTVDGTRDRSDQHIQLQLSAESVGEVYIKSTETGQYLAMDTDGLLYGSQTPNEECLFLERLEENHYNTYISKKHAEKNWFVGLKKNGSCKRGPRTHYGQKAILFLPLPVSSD
compound,measurement,setting,value
"calcium 2,5-dihydroxybenzenesulfonate",actinic keratosis,actinic keratosis; after 4 weeks,the effect was even more evident
same,actinic keratosis,actinic keratosis; after 15 days,clearly reduced
"CC(=O)Oc1ccc(OC(C)=O)c(S(=O)(=O)[O-])c1.[K+] [DABS, potassium 2,5-diacetoxybenzene sulfonate]",FGF-1 induced mitogenesis,[1],Inhibition of FGF-1 mitogenesis was observed
same,location of the compound bound to FGF-1 in the complex crystal,[2],"located at a site very close to the site that, as described, is occupied by the 2,5-dihydroxybenzenesulfonic acid"
"O=S(=O)([O-])c1cc(O)ccc1O.[K+] [potassium 2,5-dihydroxybenzenesulfonate]",FGF-1 induced mitogenesis,[1],Inhibition of the mitogenesis
"CC(=O)Oc1ccc(O)c(S(=O)(=O)[O-])c1.[K+] [5A-2HBS, potassium 5-acetoxy-2-hydroxybenzenesulfonate]",proliferation of glioma cells (absorbance at 595 nm),mouse glioma C6 cells,caused the inhibition of the proliferation
same,FGF-1 induced mitogenesis,[1],Inhibition of FGF-1 mitogenesis was observed
same,location of the compound bound to FGF-1 in the complex crystal,[2],"located at a site very close to the site that, as described, is occupied by the 2,5-dihydroxybenzenesulfonic acid"
"O=C(O)c1cc(O)ccc1O [gentisic acid, 2,5-dihydroxybenzoic acid]",accumulation of triglycerides (percentage of absorbance at 510 nm) versus untreated cells,"[3]; 50 μM, p<0.05",significantly smaller
same,differentiation of the preadipocytes and adipogenesis,"[3]; 3T3-L1 preadipocytes, 50 μM, two weeks",inhibits the differentiation of the preadipocytes and the adipogenesis
"O=S(=O)(O)c1cc(O)ccc1O [2,5-dihydroxybenzenesulfonic acid]",seborrheic keratosis,"seborrheic keratosis; 2.5% by weight emulsion, twice a day for 4 weeks, facial",reduced
same,seborrheic keratosis,"seborrheic keratosis; 5% cream, twice a day for 11 days",reduction in the seborrheic keratosis
same,hair in the area of application,hair growth,disappearance of hair in the area of application
same,number of preadipocytes differentiated in adipocytes,"[3]; 3T3-L1 cells, 25 μM, during 12 hours (so in the source)",very significant reduction
same,actinic keratosis lesion in the ear,"actinic keratosis; 5% cream, topical, after 12 days",reduction of the actinic keratosis
same,actinic keratosis lesion in the ear,"actinic keratosis; 5% cream, topical, after 15 days",the lesion was cleared
same,actinic keratosis lesion in the nose,"actinic keratosis; 5% cream, topical, after 30 days",reduction of the actinic keratosis
same,viral warts,viral warts,reduction
same,actinic lentigo areas of photoaged skin,human photoaged skin,disappearance of actinic lentigo areas
same,wrinkles of photoaged skin,human photoaged skin,reduction of the wrinkles
"CC(=O)Oc1ccc(O)cc1S(=O)(=O)O [2A-5HBS, 2-acetoxy-5-hydroxybenzenesulfonic acid]",concentration as of which a significant effect on preadipocyte proliferation is obtained,[4],100 µM
same,proliferation of preadipocytes (absorbance at 595 nm),"[4]; DHBS 10 to 100 μM, 2A-5HBS 10 to 500 μM, concentration dependent",significantly inhibited
same,proliferation of glioma cells (absorbance at 595 nm),mouse glioma C6 cells,caused the inhibition of the proliferation
same,FGF-1 induced mitogenesis,[1],Inhibition of FGF-1 mitogenesis was observed
same,location of the compound bound to FGF-1 in the complex crystal,[2],"located at a site very close to the site that, as described, is occupied by the 2,5-dihydroxybenzenesulfonic acid"
